Patent US20250346602A1, “LACTAM SUBSTITUTED IMIDAZOPYRIDAZINE IL-17A MODULATORS AND USES THEREOF” (DICE ALPHA, INC., priority 2022, published 2025)

Each molecule was assayed against T1, IL-17A/A (Homo sapiens, UniProt Q16552) (assay: IL-17A/A HEK-Blue cell assay). Settings: HEK-Blue IL-17A reporter cell line (HEK 293), IL-17A/A stimulation, 20 hours incubation, SEAP read at A630.
T1 construct: purchased Genscript Z03228
T1 sequence (Q16552 24-155): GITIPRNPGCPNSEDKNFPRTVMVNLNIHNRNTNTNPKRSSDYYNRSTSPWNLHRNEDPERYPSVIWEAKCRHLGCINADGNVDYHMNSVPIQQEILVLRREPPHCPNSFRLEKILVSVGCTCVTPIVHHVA
Format: cell-based
Method: The HEK-Blue IL-17A reporter cell line (Fisher #NC1408637) was used for cell-based IL-17A/A inhibition assays. Cells were grown and prepared for assays according to the manufacturer's instructions. This cell line consists of HEK 293 cells that were designed to expressed IL-17RA, IL-17RC, and the ActI adapter molecule, the combination of which, when stimulated by IL-17A/A activates a NFκB promoter and drives expression of a recombinant Secreted Alkaline Phosphatase (SEAP) gene protein. Media from the cells is then added to a development reagent (Quanti-Blue Substrate, Fisher #NC9711613), and read at A630.
Compounds were titrated in DMSO, with a top final compound concentration of 10 uM, 1 uM, or 0.3 uM, and added to the cells immediately before adding IL-17A/A (Genscript #Z03228). The cells, compound, and IL-17A/A were then incubated for 20 hours before media was removed for SEAP analysis. The resulting inhibition curve was then analyzed using Graphpad Prism 7.0, and IC50 values were determined using a 4-parameter nonlinear fit. DMSO was added to a universal final concentration of 0.1% to optimize background.

Row | SMILES | IC50
1 | O=C(N[C@H](c1cn2nc(CC3C[C@@H](C(F)(F)F)CNC3=O)ccc2n1)C1CCC(F)(F)CC1)c1conc1C1CC(F)(F)C1 (stereo partly drawn) [Compound 124, 3-(3,3-difluorocyclobutyl)-N-((1S)-(4,4-difluorocyclohexyl)(6-(((5R)-2-oxo-5-(trifluoromethyl)piperidin-3-yl)methyl)imidazo[1,2-b]pyridazin-2-yl)methyl)isoxazole-4-carboxamide] | 100 to 1000 nM
2 | CC[C@@H](c1ccc(F)cc1)C(NC(=O)c1ccnn1CC)c1cn2nc(CC3CC(F)(F)CNC3=O)ccc2n1 (single isomer, unassigned) [Compound 30] | 100 to 1000 nM
3 | CCn1nccc1C(=O)N[C@H](c1cn2nc(CC3C(=O)NCCC3C)ccc2n1)[C@H]1CC[C@H](C)CC1 (single isomer, unassigned) [Compound 53] | 100 to 1000 nM
4 | CC(C)n1nccc1C(=O)N[C@H](c1cn2nc(CC3C[C@@H](C(F)(F)F)CNC3=O)ccc2n1)[C@H]1CCCC(F)(F)C1 (stereo partly drawn) [Compound 148, N-((1S)—((S)-3,3-difluorocyclohexyl)(6-(((5R)-2-oxo-5-(trifluoromethyl)piperidin-3-yl)methyl)imidazo[1,2-b]pyridazin-2-yl)methyl)-1-isopropyl-1H-pyrazole-5-carboxamide] | < 100 nM
5 | CCn1nccc1C(=O)N[C@H](c1cn2nc(CC3C[C@@H](C(F)(F)F)CNC3=O)ccc2n1)C1CCC(F)(F)CC1 (stereo partly drawn) [Compound 95, N-((1S)-(4,4-difluorocyclohexyl)(6-(((5R)-2-oxo-5-(trifluoromethyl)piperidin-3-yl)methyl)imidazo[1,2-b]pyridazin-2-yl)methyl)-1-ethyl-1H-pyrazole-5-carboxamide] | 100 to 1000 nM
6 | O=C1NC[C@H](C(F)(F)F)CC1Cc1ccc2nc([C@@H](NC(=O)C3(F)CC3)C3CCC(F)(F)CC3)cn2n1 (stereo partly drawn) [Compound 139, N-((1S)-(4,4-difluorocyclohexyl)(6-(((5R)-2-oxo-5-(trifluoromethyl)piperidin-3-yl)methyl)imidazo[1,2-b]pyridazin-2-yl)methyl)-1-fluorocyclopropane-1-carboxamide] | > 1000 nM
7 | O=C(N[C@H](c1cn2ncc(CC3C[C@@H](C(F)(F)F)NC3=O)cc2n1)C1CCC(F)(F)CC1)c1conc1C1CC1 (single isomer, unassigned) [Compound 219] | < 100 nM
8 | CC(C)n1nccc1C(=O)N[C@H](c1cn2nc(CC3C[C@@H](C(F)(F)F)CNC3=O)ccc2n1)C1CCC(F)(F)CC1 (stereo partly drawn) [Compound 111, N-((1S)-(4,4-difluorocyclohexyl)(6-(((5R)-2-oxo-5-(trifluoromethyl)piperidin-3-yl)methyl)imidazo[1,2-b]pyridazin-2-yl)methyl)-1-isopropyl-1H-pyrazole-5-carboxamide] | < 100 nM
9 | CCn1nccc1C(=O)NC(c1cn2nc(CC3C[C@@H](C(F)(F)F)CNC3=O)ccc2n1)C1CCC2CC2CC1 (single isomer, unassigned) [Compound 175] | 100 to 1000 nM
10 | C[C@H]1CC[C@H]([C@H](NC(=O)c2conc2C2CC2)c2cn3nc(CC4C[C@@H](C(F)(F)F)CNC4=O)ccc3n2)CC1 (stereo partly drawn) [Compound 161, 3-cyclopropyl-N-((1S)-((1R.4S)-4-methylcyclohexyl)(6-(((5R)-2-oxo-5-(trifluoromethyl)piperidin-3-yl)methyl)imidazo[1,2-b]pyridazin-2-yl)methyl)isoxazole-4-carboxamide] | < 100 nM
11 | CCn1nccc1C(=O)N[C@H](c1cn2nc(CC3C[C@@H](C(F)(F)F)CNC3=O)c(N(C)C)cc2n1)C1CCC(F)(F)CC1 (single isomer, unassigned) [Compound 85] | 100 to 1000 nM
12 | CCn1nccc1C(=O)N[C@H](c1cn2nc(C(C)C3C[C@@H](C(F)(F)F)CNC3=O)ccc2n1)C(C1CC1)C1CC1 (single isomer, unassigned) [Compound 57] | > 1000 nM
13 | Cc1conc1C(=O)N[C@H](c1cn2nc(CC3C[C@@H](C(F)(F)F)CNC3=O)ccc2n1)C1CCC(F)(F)CC1 (stereo partly drawn) [Compound 103, N-((1S)-(4,4-difluorocyclohexyl)(6-(((5R)-2-oxo-5-(trifluoromethyl)piperidin-3-yl)methyl)imidazo[1,2-b]pyridazin-2-yl)methyl)-4-methylisoxazole-3-carboxamide] | 100 to 1000 nM

Other lines, results leading:

Row | IC50 | SMILES
14 | > 1000 nM | CCn1nccc1C(=O)N[C@H](c1cn2nc(CC3CC(F)(F)CNC3=O)c(OC)cc2n1)C1CCC(F)(F)CC1 (stereo partly drawn) [Compound 75, N-((1S)-(6-((5,5-difluoro-2-oxopiperidin-3-yl)methyl)-7-methoxyimidazo[1,2-b]pyridazin-2-yl)(4,4-difluorocyclohexyl)methyl)-1-ethyl-1H-pyrazole-5-carboxamide]
15 | 100 to 1000 nM | CCn1nccc1C(=O)N[C@H](c1cn2ncc(CC3C[C@@H](C(F)(F)F)CNC3=O)cc2n1)[C@H]1CC[C@H](C)CC1 (single isomer, unassigned) [Compound 216]
16 | > 1000 nM | CCn1nccc1C(=O)N[C@H](c1cn2nc(CC3C[C@@H](C(F)(F)F)CNC3=O)ccc2n1)[C@@H]1C[C@H]2C[C@H]2C1 (stereo partly drawn) [Compound 170, N-((1S)-((1R,3S,5S)-bicyclo[3.1.0]hexan-3-yl)(6-(((5R)-2-oxo-5-(trifluoromethyl)piperidin-3-yl)methyl)imidazo[1,2-b]pyridazin-2-yl)methyl)-1-ethyl-1H-pyrazole-5-carboxamide]
17 | > 1000 nM | CCn1nccc1C(=O)N[C@H](c1cn2nc(CC3C[C@@H](C(F)(F)F)CNC3=O)c(C(F)(F)F)cc2n1)[C@H]1CC[C@H](C)CC1 (single isomer, unassigned) [Compound 79]
18 | 100 to 1000 nM | CCn1nncc1C(=O)N[C@H](c1cn2nc(CC3C[C@@H](C(F)(F)F)CNC3=O)ccc2n1)C1CCC(F)(F)CC1 (stereo partly drawn) [Compound 108, N-((1S)-(4,4-difluorocyclohexyl)(6-(((5R)-2-oxo-5-(trifluoromethyl)piperidin-3-yl)methyl)imidazo[1,2-b]pyridazin-2-yl)methyl)-1-ethyl-1H-1,2,3-triazole-5-carboxamide]
19 | 100 to 1000 nM | CCn1nccc1C(=O)N[C@H](c1cn2nc(CC3CCNC3=O)ccc2n1)C1CCCCCC1 (single isomer, unassigned) [Compound 4]
20 | < 100 nM | O=C(N[C@H](c1cn2nc(CC3C[C@H](C(F)(F)F)CNC3=O)ccc2n1)[C@H]1CCCC(F)(F)C1)c1conc1C1CC1 (stereo partly drawn) [Compound 157, 3-cyclopropyl-N-((1S)—((S)-3,3-difluorocyclohexyl)(6-(((5S)-2-oxo-5-(trifluoromethyl)piperidin-3-yl)methyl)imidazo[1,2-b]pyridazin-2-yl)methyl)isoxazole-4-carboxamide]
21 | > 1000 nM | CCn1nccc1C(=O)N[C@H](c1cn2nc(CC3C(=O)NCC3C(F)(F)F)ccc2n1)C(C1CC1)C1CC1 (single isomer, unassigned) [Compound 45]
22 | 100 to 1000 nM | CC[C@@H](c1ccc(F)cc1)[C@H](NC(=O)c1ccnn1CC)c1cn2nc(C[C@H]3C[C@@H](C(F)(F)F)NC3=O)ccc2n1 [Compound 22, 1-ethyl-N-((1S,2S)-2-(4-fluorophenyl)-1-(6-(((3R,5S)-2-oxo-5-(trifluoromethyl)pyrrolidin-3-yl)methyl)imidazo[1,2-b]pyridazin-2-yl)butyl)-1H-pyrazole-5-carboxamide]
23 | 100 to 1000 nM | CCn1nccc1C(=O)N[C@H](c1cn2nc(CC3C[C@@H](C(F)(F)F)CNC3=O)ccc2n1)C1CC2(CCC2)C1 (single isomer, unassigned) [Compound 189]
24 | 100 to 1000 nM | O=C(N[C@H](c1cn2nc(CC3C[C@@H](C(F)(F)F)CNC3=O)ccc2n1)C1CCC(F)(F)CC1)c1conc1CC(F)F (stereo partly drawn) [Compound 120, N-((1S)-(4,4-difluorocyclohexyl)(6-(((5R)-2-oxo-5-(trifluoromethyl)piperidin-3-yl)methyl)imidazo[1,2-b]pyridazin-2-yl)methyl)-3-(2,2-difluoroethyl)isoxazole-4-carboxamide]
25 | 100 to 1000 nM | CCc1nonc1C(=O)N[C@H](c1cn2nc(C[C@H]3C[C@@H](C(F)(F)F)NC3=O)ccc2n1)C(C1CC1)C1CC1 [Compound 20, N—((S)-2,2-dicyclopropyl-1-(6-(((3R,5S)-2-oxo-5-(trifluoromethyl)pyrrolidin-3-yl)methyl)imidazo[1,2-b]pyridazin-2-yl)ethyl)-4-ethyl-1,2,5-oxadiazole-3-carboxamide]
26 | 100 to 1000 nM | CCn1nccc1C(=O)NC(c1cn2nc(CC3C(=O)NCC4CC43)ccc2n1)C1CCC(C)CC1 (single isomer, unassigned) [Compound 48]
27 | < 100 nM | CC(C)c1nonc1C(=O)N[C@H](c1cn2nc(CC3C[C@@H](C(F)(F)F)CNC3=O)ccc2n1)[C@@H]1CCCC(F)(F)C1 (stereo partly drawn) [Compound 151, N-((1S)—((R)-3,3-difluorocyclohexyl)(6-(((5R)-2-oxo-5-(trifluoromethyl)piperidin-3-yl)methyl)imidazo[1,2-b]pyridazin-2-yl)methyl)-4-isopropyl-1,2,5-oxadiazole-3-carboxamide]
28 | 100 to 1000 nM | O=C(N[C@H](c1cn2nc(CC3C[C@@H](C(F)(F)F)CNC3=O)ccc2n1)C1CCC(F)(F)CC1)c1conc1C1(F)CC1 (stereo partly drawn) [Compound 122, N-((1S)-(4,4-difluorocyclohexyl)(6-(((5R)-2-oxo-5-(trifluoromethyl)piperidin-3-yl)methyl)imidazo[1,2-b]pyridazin-2-yl)methyl)-3-(1-fluorocyclopropyl)isoxazole-4-carboxamide]
